Source: ChEMBL document CHEMBL1201862, “PubChem BioAssay data set” (2004)
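1) Cells in 96-well plates. 2) Compound, 48 h, 5 concentrations. 3) Linear interpolation between surrounding doses. 4) Unreached endpoint = highest concentration. The concentration for 50% growth inhibition is given as GI50.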 The source made the active and inactive calls. No stated cut-off is given here; in the data, active = GI50 up to about 1.1 µM and inactive = higher.

Assays:
Test in all cases: NCI-60 cell line screen, 48 h
[1] = test system: ACHN
[2] = test system: DLD-1
[3] = test system: DMS-114
[4] = test system: EKVX
[5] = test system: HCC 2998
[6] = test system: HCT-116
[7] = test system: HCT-15
[8] = test system: HOP-62
[9] = test system: HT-29
[10] = test system: KM-20L2
[11] = test system: KM12
[12] = test system: LOX IMVI
[13] = test system: LXFL 529
[14] = test system: M14
[15] = test system: M19-MEL
[16] = test system: Malme-3M
[17] = test system: NCI-H226
[18] = test system: NCI-H23
[19] = test system: NCI-H460
[20] = test system: OVCAR-3
[21] = test system: OVCAR-4
[22] = test system: OVCAR-5
[23] = test system: RXF 393
[24] = test system: SF-268
[25] = test system: SF-539
[26] = test system: SK-MEL-28
[27] = test system: SK-MEL-2
[28] = test system: SK-OV-3
[29] = test system: SN12C
[30] = test system: SNB-19
[31] = test system: SNB-75
[32] = test system: SNB-78
[33] = test system: TK-10
[34] = test system: U-251
[35] = test system: UACC-257
[36] = test system: UACC-62
[37] = test system: UO-31
[38] = test system: XF498
[39] = test system: 786-0
[40] = test system: A498
[41] = test system: A549
[42] = test system: CAKI-1
[43] = test system: CCRF-CEM
[44] = test system: COLO 205
[45] = test system: DMS-273
[46] = test system: HL-60
[47] = test system: IGROV-1
[48] = test system: K562
[49] = test system: MOLT-4
[50] = test system: NCI-H522
[51] = test system: OVCAR-8
[52] = test system: RPMI-8226
[53] = test system: SK-MEL-5
[54] = test system: SR
[55] = test system: SW-620
[56] = test system: HOP-92
[57] = test system: SF-295

With `CC(C)C(C)C(C)(C)P(C)(C)=O` (stereo not given) the GI50 [1] was > 100 µM (inactive), the GI50 [2] was > 100 µM (inactive) and the GI50 [3] was > 100 µM (inactive). The GI50 [4] was > 100 µM (inactive), the GI50 [5] was > 100 µM (inactive) and the GI50 [6] was > 100 µM (inactive). For the same molecule, the GI50 [7] was greater than 100 µM, the GI50 [8] was > 100 µM (inactive) and the GI50 [9] was > 100 µM (inactive). For the same molecule, the GI50 [10] was > 100 µM (inactive), the GI50 [11] was > 100 µM (inactive) and the GI50 [12] was > 100 µM (inactive). For the same molecule, the GI50 [13] was > 100 µM (inactive), the GI50 [14] was > 100 µM (inactive) and the GI50 [15] was > 100 µM (inactive). For the same molecule, the GI50 [16] was > 100 µM (inactive), the GI50 [17] was > 100 µM (inactive) and the GI50 [18] was > 100 µM (inactive). For the same molecule, the GI50 [19] was > 100 µM (inactive), the GI50 [20] was > 100 µM (inactive) and the GI50 [21] was > 100 µM (inactive). The GI50 [22] was > 100 µM (inactive), the GI50 [23] was > 100 µM (inactive) and the GI50 [24] was > 100 µM (inactive). For the same molecule, the GI50 [25] was > 100 µM (inactive), the GI50 [26] was > 100 µM (inactive) and the GI50 [27] was > 100 µM (inactive). The GI50 [28] was > 100 µM (inactive), the GI50 [29] was > 100 µM (inactive) and the GI50 [30] was > 100 µM (inactive). For the same molecule, the GI50 [31] was > 100 µM (inactive), the GI50 [32] was > 100 µM (inactive) and the GI50 [33] was > 100 µM (inactive). The GI50 [34] was > 100 µM (inactive), the GI50 [35] was > 100 µM (inactive) and the GI50 [36] was > 100 µM (inactive). The GI50 [37] was > 100 µM (inactive) and the GI50 [38] was > 100 µM (inactive).

With `Cc1ccc(S(=O)(=O)C(C#N)c2nc3ccccc3nc2N2CCOCC2)cc1` (stereo not given) the GI50 [39] was 30.2 µM (inactive), the GI50 [40] was 53.7 µM (inactive) and the GI50 [41] was 76 µM (inactive). For the same molecule, the GI50 [1] was 30.3 µM (inactive), the GI50 [42] was 25.6 µM (inactive) and the GI50 [43] was 13.9 µM (inactive). For the same molecule, the GI50 [44] was 30.3 µM (inactive), the GI50 [2] was 27.3 µM (inactive) and the GI50 [3] was 22.5 µM (inactive). The GI50 [45] was 17.8 µM (inactive), the GI50 [4] was > 100 µM (inactive) and the GI50 [5] was 14.1 µM (inactive). For the same molecule, the GI50 [6] was 18.2 µM (inactive), the GI50 [7] was 31 µM and the GI50 [46] was > 10 µM (inactive). The GI50 [8] was 20.5 µM (inactive), the GI50 [47] was 13.6 µM (inactive) and the GI50 [48] was > 10 µM (inactive). For the same molecule, the GI50 [10] was 33.4 µM (inactive), the GI50 [11] was 18.3 µM (inactive) and the GI50 [12] was 16.6 µM (inactive). For the same molecule, the GI50 [13] was 27.9 µM (inactive), the GI50 [14] was 44.2 µM (inactive) and the GI50 [15] was 26.7 µM (inactive). The GI50 [49] was 19.2 µM (inactive), the GI50 [16] was 27.5 µM (inactive) and the GI50 [17] was > 100 µM (inactive). For the same molecule, the GI50 [18] was 21.8 µM (inactive), the GI50 [19] was 17.9 µM (inactive) and the GI50 [50] was 18.7 µM (inactive). The GI50 [20] was 33.8 µM (inactive), the GI50 [21] was 20.5 µM (inactive) and the GI50 [22] was > 100 µM (inactive). For the same molecule, the GI50 [51] was > 10 µM (inactive), the GI50 [52] was 22 µM (inactive) and the GI50 [24] was 28.6 µM (inactive). For the same molecule, the GI50 [25] was 38.8 µM (inactive), the GI50 [26] was 23.4 µM (inactive) and the GI50 [27] was 33.1 µM (inactive). For the same molecule, the GI50 [53] was 48.8 µM (inactive), the GI50 [28] was 61.5 µM (inactive) and the GI50 [29] was 28.2 µM (inactive). For the same molecule, the GI50 [30] was 28.6 µM (inactive), the GI50 [31] was 22.8 µM (inactive) and the GI50 [32] was 3.09 µM (inactive). The GI50 [54] was 28.1 µM (inactive), the GI50 [55] was 26.9 µM (inactive) and the GI50 [33] was 56.6 µM (inactive). The GI50 [34] was 18.7 µM (inactive), the GI50 [35] was 33.8 µM (inactive) and the GI50 [36] was 12.4 µM (inactive). The GI50 [37] was 32.1 µM (inactive) and the GI50 [38] was 24.3 µM (inactive).

For `C/C=C1\CN2CCc3c([nH]c4ccccc34)C2CC1C(=O)OC` (stereo not given), the GI50 [39] was > 322 µM (inactive), the GI50 [41] was > 322 µM (inactive) and the GI50 [1] was > 322 µM (inactive). The GI50 [42] was > 322 µM (inactive), the GI50 [43] was > 322 µM (inactive) and the GI50 [44] was > 322 µM (inactive). The GI50 [2] was > 322 µM (inactive), the GI50 [45] was > 322 µM (inactive) and the GI50 [4] was > 322 µM (inactive). The GI50 [5] was > 322 µM (inactive), the GI50 [6] was > 322 µM (inactive) and the GI50 [7] was greater than 322 µM. The GI50 [46] was > 32.2 µM (inactive), the GI50 [8] was > 322 µM (inactive) and the GI50 [56] was 169 µM (inactive). For the same molecule, the GI50 [9] was > 322 µM (inactive), the GI50 [47] was > 322 µM (inactive) and the GI50 [48] was > 322 µM (inactive). The GI50 [10] was > 322 µM (inactive), the GI50 [11] was > 322 µM (inactive) and the GI50 [12] was > 322 µM (inactive). The GI50 [13] was > 322 µM (inactive), the GI50 [49] was > 322 µM (inactive) and the GI50 [16] was > 322 µM (inactive). For the same molecule, the GI50 [17] was > 322 µM (inactive), the GI50 [18] was > 322 µM (inactive) and the GI50 [19] was > 322 µM (inactive). For the same molecule, the GI50 [50] was 287 µM (inactive), the GI50 [20] was > 322 µM (inactive) and the GI50 [22] was > 322 µM (inactive). For the same molecule, the GI50 [51] was > 322 µM (inactive), the GI50 [52] was > 322 µM (inactive) and the GI50 [23] was > 322 µM (inactive). The GI50 [24] was > 322 µM (inactive), the GI50 [57] was > 322 µM (inactive) and the GI50 [25] was > 322 µM (inactive). For the same molecule, the GI50 [26] was > 322 µM (inactive), the GI50 [27] was > 322 µM (inactive) and the GI50 [53] was > 322 µM (inactive). The GI50 [28] was > 322 µM (inactive), the GI50 [29] was > 322 µM (inactive) and the GI50 [30] was > 322 µM (inactive). The GI50 [54] was > 322 µM (inactive), the GI50 [55] was > 322 µM (inactive) and the GI50 [33] was > 322 µM (inactive). For the same molecule, the GI50 [34] was > 322 µM (inactive), the GI50 [35] was > 322 µM (inactive) and the GI50 [36] was > 322 µM (inactive). The GI50 [38] was > 322 µM (inactive).
